Experimental data from patent US8791116B2, “Myosin light chain kinase inhibitor compounds, compositions and related methods of use” (Northwestern University, priority 2006, dated 2014).
“Also recorded” adds a separate entry of the source.

Key:
[1] = molecular target: death-associated protein kinase (DAPK) (Homo sapiens, UniProt P53355); assay: Kinase inhibitory activity against death-associated protein kinase; assay type: biochemical; conditions: read-out: DAPK (μM), in vitro inhibition of kinases
death-associated protein kinase (DAPK), sequence (P53355 1-285 limits assumed, species assumed): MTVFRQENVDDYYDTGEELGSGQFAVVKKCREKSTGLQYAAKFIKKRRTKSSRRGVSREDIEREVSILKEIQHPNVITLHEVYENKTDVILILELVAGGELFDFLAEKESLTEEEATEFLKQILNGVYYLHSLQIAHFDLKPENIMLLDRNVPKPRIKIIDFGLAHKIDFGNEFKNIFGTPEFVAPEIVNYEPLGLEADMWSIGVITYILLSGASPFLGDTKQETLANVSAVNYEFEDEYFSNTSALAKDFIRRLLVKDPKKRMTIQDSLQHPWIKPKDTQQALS
Procedure: (§1) MLCK inhibitory activity screens were done by incubation with 20 μM peptide substrate ([…]), 200 μM ATP and [^32P]-ATP (2.5 μCi per reaction) in assay buffer (50 mM HEPES, pH 7.5 with KOH, 5 mM MgCl2, 0.15 M KCl, 0.015 M NaCl, 1 mM DTT) with 0.1 mM CaCl2 and 1 μM calmodulin (New England Biolabs, MA). [T. J. Lukas, S. Mirzoeva, U. Slomczynska and D. M. Watterson, J. Med. Chem. 42 (1999) 910-9.] Reactions were initiated by addition of MLCK protein and incubated for 20 min at 25° C. Reactions were spotted onto P-81 paper (Whatman, Clifton, N.J.), washed with 75 mM H3PO4 and 95% EtOH, and quantified by scintillation counting in EcoScintO (National Diagnostics, Atlanta, Ga.). Testing of compounds for kinase inhibitory activity against the structurally and functionally related kinases death-associated protein kinase (DAPK) and the signal transduction pathway relevant kinases protein kinase A (PKA) and protein kinase C (PKC) was performed as described by using the corresponding peptide substrates and assay conditions. [[…]. Guo, […]. Bourguignon, […]. Van Eldik and D. M. Watterson, J. Med. Chem 45 (2002) 563-6; A. M. Schumacher, […] and D. M. Watterson, Biochemistry 43 (2004) 8116-24; […]. Schumacher and D. M. Watterson, Pharmacol Ther 93 (2002) 217-24; […]. Schumacher, C. Weiss, M. Egli and D. M. Watterson, J. Biol. Chem. 276 (2001) 38956-65; D. M. Watterson, S. Mirzoeva, L. Guo, […]. Bourguignon, […] and L. J. Van Eldik, Neurochem Int. 39 (2001) 459-68.]

MLCK = MLCK (Homo sapiens, UniProt Q15746); assay: MLCK inhibitory activity screen (32P-ATP peptide substrate phosphorylation); assay type: biochemical; conditions: for IC50: 20 μM peptide substrate, 200 μM ATP, 20 min at 25° C., read-out: MLCK (μM), in vitro inhibition of kinases; for selectivity for MLCK over related protein kinases (in words): compared to DAPK, PKC and PKA
MLCK, sequence (Q15746 whole entry): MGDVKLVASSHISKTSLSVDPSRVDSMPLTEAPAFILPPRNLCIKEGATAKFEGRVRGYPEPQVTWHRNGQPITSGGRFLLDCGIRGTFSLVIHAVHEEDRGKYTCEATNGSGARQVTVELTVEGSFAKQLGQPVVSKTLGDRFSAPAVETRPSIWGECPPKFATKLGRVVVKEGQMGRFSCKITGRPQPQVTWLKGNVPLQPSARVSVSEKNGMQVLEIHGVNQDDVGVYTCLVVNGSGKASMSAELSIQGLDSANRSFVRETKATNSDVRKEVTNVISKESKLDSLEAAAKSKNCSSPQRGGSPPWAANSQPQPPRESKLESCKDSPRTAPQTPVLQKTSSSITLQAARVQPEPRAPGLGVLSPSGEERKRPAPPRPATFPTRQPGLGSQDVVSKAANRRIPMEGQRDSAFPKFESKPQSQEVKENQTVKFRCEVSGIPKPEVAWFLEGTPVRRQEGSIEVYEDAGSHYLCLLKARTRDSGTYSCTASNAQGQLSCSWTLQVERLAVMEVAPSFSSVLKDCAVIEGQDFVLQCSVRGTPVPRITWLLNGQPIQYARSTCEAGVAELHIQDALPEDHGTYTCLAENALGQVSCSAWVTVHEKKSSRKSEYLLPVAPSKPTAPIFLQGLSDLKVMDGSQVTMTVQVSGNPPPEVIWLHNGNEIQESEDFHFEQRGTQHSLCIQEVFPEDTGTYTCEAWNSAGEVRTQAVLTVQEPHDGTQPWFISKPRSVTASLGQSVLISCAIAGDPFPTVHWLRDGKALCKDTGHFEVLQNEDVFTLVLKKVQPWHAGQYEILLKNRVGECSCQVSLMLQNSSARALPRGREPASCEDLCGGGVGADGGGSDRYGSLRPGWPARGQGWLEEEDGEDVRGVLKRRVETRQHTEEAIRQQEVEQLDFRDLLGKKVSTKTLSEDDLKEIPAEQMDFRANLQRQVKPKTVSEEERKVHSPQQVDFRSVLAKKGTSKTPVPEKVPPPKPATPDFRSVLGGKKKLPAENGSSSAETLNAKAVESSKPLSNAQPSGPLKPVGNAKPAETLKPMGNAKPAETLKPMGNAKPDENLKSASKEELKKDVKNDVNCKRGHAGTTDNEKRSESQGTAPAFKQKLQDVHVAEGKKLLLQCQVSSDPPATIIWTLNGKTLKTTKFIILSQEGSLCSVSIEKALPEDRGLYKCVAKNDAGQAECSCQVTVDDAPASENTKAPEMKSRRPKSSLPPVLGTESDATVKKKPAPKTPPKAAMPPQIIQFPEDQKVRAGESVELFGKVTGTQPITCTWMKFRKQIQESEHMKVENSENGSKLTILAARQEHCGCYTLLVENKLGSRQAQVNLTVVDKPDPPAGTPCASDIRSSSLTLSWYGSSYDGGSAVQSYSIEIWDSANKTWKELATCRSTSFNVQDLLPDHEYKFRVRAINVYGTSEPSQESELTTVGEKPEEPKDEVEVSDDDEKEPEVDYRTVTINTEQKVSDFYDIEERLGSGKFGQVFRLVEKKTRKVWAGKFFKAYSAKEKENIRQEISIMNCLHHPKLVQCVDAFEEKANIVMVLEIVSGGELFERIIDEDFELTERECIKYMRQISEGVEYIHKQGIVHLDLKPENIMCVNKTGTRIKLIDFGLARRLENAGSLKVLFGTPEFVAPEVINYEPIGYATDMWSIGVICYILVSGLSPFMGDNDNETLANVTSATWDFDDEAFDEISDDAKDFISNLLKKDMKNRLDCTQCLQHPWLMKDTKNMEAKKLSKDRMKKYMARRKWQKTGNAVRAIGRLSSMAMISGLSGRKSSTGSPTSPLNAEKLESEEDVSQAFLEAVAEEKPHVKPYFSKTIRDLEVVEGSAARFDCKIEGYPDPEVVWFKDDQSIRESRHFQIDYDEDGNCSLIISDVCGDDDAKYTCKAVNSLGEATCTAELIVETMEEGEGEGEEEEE
Procedure: as §1

[2] = In vitro metabolic stability with human liver microsomes; assay type: in vitro ADME; conditions: 5 μM compound, 10 and 30 min at 37° C., HPLC
Procedure: A standard screening of compounds for in vitro metabolic stability with human liver microsomes was done at 5 μM of compound using commercially available, calibrated human liver microsomes (BD Biosciences, Bedford, Mass.) and an NADPH-regenerating system. [D. Ackley, K. Rockich and T. Baker. in (Caldwell, Z. Y. a. G. W., ed.) Methods in pharmacology and toxicology optimization in drug discovery: in vitro methods, Humana Press Inc., Totowa, N.J. 2004, pp. 151-62.] Briefly, reaction mixtures were prepared in 0.1 M potassium phosphate buffer and contained 1.6 mg/ml microsomal protein, 5 μM test compound, 1.3 mM NADPH, 3.3 mM MgCl2, 0.4 U/ml glucose-6-phosphate dehydrogenase, and 3.3 mM glucose-6-phosphate in a total volume of 300 μl. Reactions were incubated for 10 and 30 minutes at 37° C. and halted by addition of cold acetonitrile. The mixture was centrifuged at 10000 g for 10 min and 20 μl of supernatant was analyzed by HPLC to quantify the percentage of the initial amount of compound remaining after incubation. The HPLC mobile phase consisted of 5% acetonitrile in water as reagent A and 80% acetonitrile/0.08% formic acid/water as reagent B at a flow rate of 0.2 ml/min. The gradient consisted of the following variations in % B: begin with % B at 0 for 2 min, 0-100% from 2 to 22 min, isocratic until 24 min. Peak quantification was done based upon absorption measurements at 260 nm relative to a standard curve obtained by serial dilutions of known amounts of compounds.

protein kinase A (PKA) = protein kinase A (PKA) (Homo sapiens, UniProt P17612); assay: Kinase inhibitory activity against protein kinase A; assay type: biochemical; conditions: read-out: PKA (μM), in vitro inhibition of kinases
Procedure: as §1

protein kinase C (PKC) = assay: Kinase inhibitory activity against protein kinase C; assay type: biochemical; conditions: read-out: PKC (μM), in vitro inhibition of kinases
Procedure: MLCK inhibitory activity screens were done by incubation with 20 μM peptide substrate (KKRPQRATSNVFAM-NH2), 200 μM ATP and [^32P]-ATP (2.5 μCi per reaction) in assay buffer (50 mM HEPES, pH 7.5 with KOH, 5 mM MgCl2, 0.15 M KCl, 0.015 M NaCl, 1 mM DTT) with 0.1 mM CaCl2 and 1 μM calmodulin (New England Biolabs, MA). [T. J. Lukas, S. Mirzoeva, U. Slomczynska and D. M. Watterson, J. Med. Chem. 42 (1999) 910-9.] Reactions were initiated by addition of MLCK protein and incubated for 20 min at 25° C. Reactions were spotted onto P-81 paper (Whatman, Clifton, N.J.), washed with 75 mM H3PO4 and 95% EtOH, and quantified by scintillation counting in EcoScintO (National Diagnostics, Atlanta, Ga.). Testing of compounds for kinase inhibitory activity against the structurally and functionally related kinases death-associated protein kinase (DAPK) and the signal transduction pathway relevant kinases protein kinase A (PKA) and protein kinase C (PKC) was performed as described by using the corresponding peptide substrates and assay conditions. [S. Mirzoeva, A. Sawkar, M. Zasadzki, L. Guo, A. V. Velentza, V. Dunlap, J. J. Bourguignon, H. Ramstrom, J. Haiech, L. J. Van Eldik and D. M. Watterson, J. Med. Chem 45 (2002) 563-6; A. M. Schumacher, J. P. Schavocky, A. V. Velentza, S. Mirzoeva and D. M. Watterson, Biochemistry 43 (2004) 8116-24; A. V. Velentza, A. M. Schumacher and D. M. Watterson, Pharmacol Ther 93 (2002) 217-24; A. V. Velentza, A. M. Schumacher, C. Weiss, M. Egli and D. M. Watterson, J. Biol. Chem. 276 (2001) 38956-65; D. M. Watterson, S. Mirzoeva, L. Guo, A. Whyte, J. J. Bourguignon, M. Hibert, J. Haiech and L. J. Van Eldik, Neurochem Int. 39 (2001) 459-68.]

[3] = test system: LPS induced vascular leak in the lungs; assay: Bacterial toxin (LPS)-induced pulmonary vascular leak, Evans blue dye in lung; assay type: in vivo; conditions: mice, LPS 10 mg/kg i.p., compound 5 mg/kg i.p., 24 h
Procedure: Adult (20-30 g) female C57B1/6 mice were obtained from a commercial vendor (Harlan, Indianapolis, Ind.). The generation and characterization of the MLCK210 KO mouse strain was previously described. [M. S. Wainwright, J. Rossi, J. Schavocky, S. Crawford, D. Steinhorn, […]. Jia, […]. Van Eldik and D. M. Watterson, Proc. Natl. Acad. Sci. USA 100 (2003) 6233-8.] All animal procedures were performed in accordance with relevant National Institutes of Health guidelines and approved by the Institutional Animal Care and Use Committee of Northwestern University. Pulmonary vascular leak after injurious endotoxin exposure was examined essentially as previously described, above, except using the increase in Evans blue dye in the lung as a quantitative end point. […] The levels of Evans blue in the serum and the tissue supernatant were then determined by measuring the absorbance at 620 nm. The reading at 620 nm (E620) was corrected for the presence of contaminating heme pigments in the samples by measuring the absorbance at 740 nm (E740) and using the correction formula E620=E620-(1.426×E740+0.030). The amount of Evans blue in the samples was then calculated using a standard curve obtained with known amounts of Evans blue. The results were normalized by considering the mean level of Evans blue measured in LPS-treated mice as 100%.

## N=c1ccc(-c2ccccc2)nn1CCCCCCCCCCC(=O)NCCC1CCCC1 [Compound 10, N-(2-cyclopentylethyl)-11-(6-imino-3-phenylpyridazin-1(6H)-yl)undecanamide]
[1]
  IC50: 206 µM
MLCK
  IC50: 2.5 µM
  selectivity for MLCK over related protein kinases (in words): selective for MLCK
MLCK; in vitro, versus compound 6
  MLCK inhibitory activity relative to parent compound (in words): more active in vitro than the parent compound 6
[2]
  amount of compound remaining after incubation with human liver microsomes: significantly lower than compound 6; also recorded: significantly different (***p<0.001) at 10 and 30 min compared to zero min
Protein kinase A (PKA)
  IC50: > 1000 µM
Protein kinase C (PKC)
  IC50: 68 µM

## CN1CCCC1CCNC(=O)CCCCCCCCCCn1nc(-c2ccccc2)ccc1=N (stereo not drawn) [Compound 6, 11-(6-imino-3-phenylpyridazin-1(6H)-yl)-N-(2-(1-methylpyrrolidin-2-yl)ethyl)-undecanamide]
[1]
  IC50: > 1000 µM
MLCK
  IC50: 13.3 µM
  selectivity for MLCK over related protein kinases (in words): highly selective for MLCK; also recorded: selective for MLCK compared to closely related protein kinases
MLCK; ratio from Table 1
  selectivity for MLCK versus DAPK: over 76 times
[2]
  amount of compound remaining after incubation with human liver microsomes: stable
[2]; listed as compound 6
  amount of compound remaining after incubation with human liver microsomes: did not decrease up to 30 minutes of incubation; also recorded: The majority of compound 6 (filled bar) remains after 10 and 30 min incubation times
Protein kinase A (PKA)
  IC50: > 1000 µM
Protein kinase C (PKC)
  IC50: 414 µM
[3]
  level of Evans blue dye in lung tissue (pulmonary vascular leak): efficacious in vivo to reduce LPS-induced pulmonary vascular leak; also recorded: significantly lower (*p<0.05) levels of dye

## N=c1ccc(-c2ccccc2)nn1CCCCCCCCCCC(=O)NCCc1c[nH]cn1 [Compound 5, N-(2-(1H-imidazol-4-yl)ethyl)-11-(6-imino-3-phenylpyridazin-1(6H)-yl)undecanamide]
[1]
  IC50: 271 µM
MLCK
  IC50: 6.3 µM
  selectivity for MLCK over related protein kinases (in words): more selective than compounds 1 or 2
Protein kinase A (PKA)
  IC50: > 1000 µM
Protein kinase C (PKC)
  IC50: 166 µM
